Experimental data: article PMC4425608 (Pharmaceutical research, 2014)
“Also recorded” adds a separate entry of the source. Like-named read-outs stand apart in the source and are kept apart here.

How the values were obtained:
[1] = system: GHB uptake in KNRK cells; experiment: Inhibition of [3H]GHB uptake in KNRK cells; format: cell-based; settings: rat KNRK cells
[2] = system: MCT2; settings: expressed in Xenopus laevis oocytes; cited from earlier work
[3] = system: MCT4; settings: expressed in Xenopus laevis oocytes; cited from earlier work
[4] = Pharmacokinetics of AR-C155858 in rats following intravenous administration; settings: 0.1, 1, and 5 mg/kg i.v. bolus
[5] = rats, mean (SD), cited from earlier work
[6] = system: GHB-induced respiratory depression; settings: rats, mean (SD), cited from earlier work
[7] = GHB blood-brain partitioning at steady state; settings: rats; GHB 400 mg/kg i.v. bolus + 208 mg/kg/h i.v. infusion alone; 4 h; mean ± SD
[8] = Oral GHB toxicokinetics with and without AR-C155858
[9] = rats, cited from earlier work
[10] = GHB 1500 mg/kg i.v. bolus alone
[11] = male, Sprague-Dawley, rat, plasma, po, 1500 mg/kg
[12] = rats, GHB 1500 mg/kg oral gavage alone, mean (SD)

## Cc1n[nH]c(C)c1Cc1sc2c(c1C(=O)N1C[C@H](O)CO1)c(=O)n(C)c(=O)n2CC(C)C [AR-C155858, 6-[(3,5-Dimethyl-1H-pyrazol-4-yl)methyl]-5-[[(4S)-4-hydroxy-2-isoxazolidinyl]carbonyl]-3-methyl-1-(2-methylpropyl)thieno[2,3-d]pyrimidine-2,4(1H,3H)-dione]
[1]; 100 nM AR-C155858, pre-incubation 0-60 min
  pre-incubation time giving maximal inhibition of GHB uptake: 30 min
[1]; 30 min pre-incubation
  concentration giving maximal inhibition of GHB uptake: 100 nM
[1]; 30 min pre-incubation with 100 nM, washed 3 times
  reversibility of inhibition of GHB uptake after washing the cells: not to be rapidly reversible
[1]; linear trend in inhibition up to 30 nM, 30 min pre-incubation
  inhibition of GHB uptake: 70%
[2]
  inhibition of MCT2: potently inhibited; also recorded: can also inhibit
[3]
  inhibition of MCT4: no inhibition; also recorded: does not inhibit
[4]
  AR-C155858 plasma concentration-time profile: biexponential decline and dose-proportional pharmacokinetics

## O=C(O)CCCO [GHB, γ-hydroxybutyric acid]
[5]; GHB 200 mg/kg i.v. bolus alone
  GHB AUC: 26.2 (0.90) mg.min/ml
  GHB CLR (renal clearance): 0.44 (0.20) ml/min/kg
  GHB CLT (total clearance): 7.60 (0.29) ml/min/kg
  GHB urinary recovery: 5.90 (2.86) %
[5]; GHB 600 mg/kg i.v. bolus alone
  GHB AUC: 102 (12.4) mg.min/ml
  GHB CLR (renal clearance): 1.68 (0.75) ml/min/kg
  GHB urinary recovery: 27.3 (9.77) %
[5]; [10]
  GHB AUC: 288 (39.8) mg.min/ml
  GHB CLT (total clearance): 5.16 (0.70) ml/min/kg
  GHB urinary recovery: 61.1 (5.02) %
[6]; GHB 200 mg/kg i.v. bolus alone
  AUEC, area under the effect curve for breathing frequency: 2243 (1508) breaths
  Emax, maximum effect on breathing frequency: 51.9 (8.51) breaths/ min
  Td, duration of effect on breathing frequency: 113 (60.6) min
[6]; GHB 600 mg/kg i.v. bolus alone
  AUEC, area under the effect curve for breathing frequency: 7987 (1228) breaths
  Emax, maximum effect on breathing frequency: 29.5 (6.94) breaths/ min
  Td, duration of effect on breathing frequency: 153 (12.5) min
[6]; [10]
  AUEC, area under the effect curve for breathing frequency: 12505 (1995) breaths
  Emax, maximum effect on breathing frequency: 15.6 (7.05) breaths/ min
  Td, duration of effect on breathing frequency: 281 (72.8) min
[7]
  Cbrain, brain GHB concentration at steady-state: 0.22 ± 0.03 mg/g
  Cplasma, plasma GHB concentration at steady-state: 0.87 ± 0.05 mg/mL
[8]; [11]
  CL/F: 0.391 L/h/kg
  Cmax: 659 µg/mL
[8]; male, Sprague-Dawley, rat, urine and plasma, po, 1500 mg/kg
  CL renal: 0.109 L/h/kg
[8]; [12]
  GHB AUC: 233 (30.0) mg.min/ml
  GHB urinary excretion: 28.2 (10.1) %

## C[C@H](O)C(=O)O [L-lactate]
[9]; higher doses, plasma steady state L-lactate concentrations ≈ 4–5 mM
  effect on GHB extracellular fluid concentrations in the frontal cortex: decreased
[9]; lower doses, plasma steady state L-lactate concentrations ≈ 1–2 mM
  effect on GHB extracellular fluid concentrations in the frontal cortex: no significant effect
